# In publication PMC7832085 (Journal of medicinal chemistry, 2016):
# Columns and labels:
# recombinant human TDP2 = target: T1, recombinant human TDP2 (Homo sapiens, UniProt O95551); experiment: Recombinant TDP2 assay; type: biochemical; settings: for Inhibition of recombinant TDP2 (in words): recombinant human TDP2, concentrations up to 111 μM
# T1 sequence (O95551 1-362): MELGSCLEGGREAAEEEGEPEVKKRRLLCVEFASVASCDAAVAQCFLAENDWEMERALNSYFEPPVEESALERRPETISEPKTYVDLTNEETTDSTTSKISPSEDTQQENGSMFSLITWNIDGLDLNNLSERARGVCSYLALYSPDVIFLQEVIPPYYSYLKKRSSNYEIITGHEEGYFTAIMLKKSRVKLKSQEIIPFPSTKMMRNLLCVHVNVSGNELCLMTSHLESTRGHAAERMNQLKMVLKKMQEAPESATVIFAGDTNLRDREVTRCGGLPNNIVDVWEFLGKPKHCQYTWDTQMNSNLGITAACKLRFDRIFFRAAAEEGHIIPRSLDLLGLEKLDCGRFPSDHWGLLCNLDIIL
# [1] = target: T2, human TDP2 (hTDP2) whole cell extracts (Homo sapiens, UniProt O95551); experiment: Whole cell extract; type: biochemical
# T2 sequence (O95551 1-362): T1 sequence (O95551 1-362)
# hTDP2 DT40 cells = type: cell-based; settings: different concentrations of EPT
# TDP1 = TDP1 (Homo sapiens, UniProt Q9NUW8); experiment: TDP1 counter assay; type: biochemical; settings: highest testing concentration 111 μM
# Sequence of TDP1 (Q9NUW8 whole entry): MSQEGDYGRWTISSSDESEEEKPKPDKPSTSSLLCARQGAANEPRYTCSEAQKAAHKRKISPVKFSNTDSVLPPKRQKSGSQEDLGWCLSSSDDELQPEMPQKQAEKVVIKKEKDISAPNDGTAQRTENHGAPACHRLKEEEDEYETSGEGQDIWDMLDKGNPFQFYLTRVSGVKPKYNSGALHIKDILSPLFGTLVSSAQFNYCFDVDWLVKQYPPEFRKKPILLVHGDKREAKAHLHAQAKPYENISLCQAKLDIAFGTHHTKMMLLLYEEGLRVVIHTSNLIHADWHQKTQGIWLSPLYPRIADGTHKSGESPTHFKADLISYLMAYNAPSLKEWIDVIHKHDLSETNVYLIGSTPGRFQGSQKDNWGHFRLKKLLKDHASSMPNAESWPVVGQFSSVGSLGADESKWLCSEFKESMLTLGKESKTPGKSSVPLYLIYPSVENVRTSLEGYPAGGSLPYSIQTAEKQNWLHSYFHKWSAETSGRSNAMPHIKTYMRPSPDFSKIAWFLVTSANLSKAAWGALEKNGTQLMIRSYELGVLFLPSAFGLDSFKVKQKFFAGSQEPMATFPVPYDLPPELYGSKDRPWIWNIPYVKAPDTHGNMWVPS
Compound,Inhibition of recombinant TDP2 (in words) (recombinant human TDP2),Synergy in combination with ETP (hTDP2 DT40 cells),also measured
"O=C1Cc2cc(-c3ccco3)ccc2C(=O)N1O [Compound 46, 6-(Furan-2-yl)-2-hydroxyisoquinoline-1,3(2H,4H)-dione]",inactive,–,Inhibition of endogenous TDP2 in WCE (in words) [1]: inactive
"O=C1Cc2ccc(C(=O)O)cc2C(=O)N1 [Compound 40, 1,3-Dioxo-1,2,3,4-tetrahydroisoquinoline-7-carboxylic Acid]",–,not observed,–
"O=C1Cc2cc(I)ccc2C(=O)N1 [Compound 36, 6-Iodoisoquinoline-1,3(2H,4H)-dione]",–,not observed,–
"O=C1Cc2c(cccc2-c2ccco2)C(=O)N1 [Compound 45, 5-(Furan-2-yl)isoquinoline-1,3(2H,4H)-dione]",inactive,–,–
"O=C1Cc2c(Br)cccc2C(=O)N1 [Compound 34, 5-Bromoisoquinoline-1,3(2H,4H)-dione]",inactive,–,–
"O=C1Cc2cccc(-c3cccc([N+](=O)[O-])c3)c2C(=O)N1 [Compound 57, 8-(3-Nitrophenyl)isoquinoline-1,3(2H,4H)-dione]",substantially reduced inhibitory activity,–,–
"O=C1Cc2cc(-c3ccco3)ccc2C(=O)N1 [Compound 43, 6-(Furan-2-yl)isoquinoline-1,3 (2H,4H)-dione]",–,not observed,IC50 (recombinant human TDP2): 8.5 µM; Inhibition of TDP1 (counter assay) (TDP1): no inhibition
O=C1Cc2cc(-c3nc4ccccc4s3)ccc2C(=O)N1 [Compound 84],–,not observed,–
"O=C1Cc2c(cccc2-c2cccc([N+](=O)[O-])c2)C(=O)N1 [Compound 58, 5-(3-Nitrophenyl)isoquinoline-1,3(2H,4H)-dione]",inactive,–,–
"O=C1Cc2cccc(-c3cccc(O)c3)c2C(=O)N1 [Compound 53, 8-(3-Hydroxyphenyl)isoquinoline-1,3(2H,4H)-dione]",substantially reduced inhibitory activity,–,–
